In patent publication US8790735B2, “Method of preferentially reducing absorption of saturated fat and compositions” (General Mills, Inc., priority 2005, dated 2014):
Entries after “also recorded” stand apart in the source; their conditions may differ.

System: Male Wistar rats
Assay: Excretion of radiolabeled triolein and tripalmitin in rats fed test diets
Format: in vivo, rat
Description: As noted above, saturated fat is deemed to be complexed if at least about 5% of the available saturated fat is complexed. The amount of fat that is complexed is determined by conducting excretion studies as detailed below, and determining the amount of fat that is excreted as compared to a control sample not containing complexed fat. While some of the complexed fat may dissociate in the body, the excretion study will identify the minimum percentage of fat that is complexed.
• 13. Centrifuge the isolated aqueous layer from 11 above at 5000×g for 10 min. • 14. Filter 1 ml of the centrifuged sample supernatant with 0.45 micrometer nylon filter. Inject on to HPLC molecular sizing column. Quantify total cyclodextrin relative to a response factor developed from a standard curve of pure cyclodextrin. • 15. For Pure Fat Samples Only: Weigh remainder of supernatant sample into tared flask. Evaporate moisture to dryness. Record weight of solids. (note: net weight for non-salt containing fat samples will represent free alpha-cyclodextrin) • 16. Subtract free alpha-cyclodextrin amounts determined in 8 above from values determined in steps 15 and 16. Value equals total bound alpha-cyclodextrin. Experimental Design Male Wistar rats, 125-150 g in initial weight, 10 per group, were fed one of four diets. The diets were modifications of the AIN-93G diet [Reeves, PG (1997) Components of the AIN-93 Diets as Improvements in the AIN-76A Diet, J. Nutr. 127:838 S-841S], and thus was a purified diet. All diets were modified to contain 15% fat by weight, wherein the fat comprised 50% ^14C-triolein, an unsaturated fat that is a triglyceride of oleic acid, and 50% ^3H-tripalmitin, a saturated fat that is a triglyceride of palmitic acid. The diets were as follows:
Note that Diet 3 comprised the AIN-93G diet containing 5% α-cyclodextrin (replacing cellulose), which was added in the free unhydrated form as provided by the manufacturer (unhydrated ACD contains approximately 10% w/w moisture). Diet 4 comprised the AIN-93G diet containing 5% hydrated α-cyclodextrin (replacing cellulose), mixed with the radiolabeled fat prior to incorporation into the diet.
The animals were fed their respective diets for 7 days. A two day fecal fat collection was made during days 6 and 7 to allow for a conventional fecal fat determination (i.e. fat extraction with acidified chloroform:methanol). The animals were then fasted overnight, and presented with a 4 g meal of their respective diets containing ^14C-triolein and ^3H-tripalmitin incorporated into the diet. A fecal collection was begun four hours later, and continued until the animals were taken. Twelve hours later, the rats were killed and the small and large intestinal tracts removed. Contents of the stomach, small intestine, cecum, and colon as well as the small intestinal mucosa were collected and freeze-dried. […] After solubilization, the solution was neutralized with glacial acetic acid (to eliminate chemiluminescence), scintillation cocktail added, and the vials counted in a liquid scintillation counter using a dual label counting algorithm.
In this study, excretion is defined as all radiolabel present in the cecal contents, colon contents, and feces. Excretion is calculated in this manner as there is no absorption of triacylglycerols in the large intestine; thus, any radiolabel present in the cecal or colon contents cannot be absorbed and is thus destined to be excreted. […]

[1] = 5% in AIN-93G diet with 15% fat, fed 7 days, then 4 g radiolabeled meal, FIG. 1

With `OC[C@H]1O[C@@H]2O[C@H]3[C@H](O)[C@@H](O)[C@@H](O[C@H]4[C@H](O)[C@@H](O)[C@@H](O[C@H]5[C@H](O)[C@@H](O)[C@@H](O[C@H]6[C@H](O)[C@@H](O)[C@@H](O[C@H]7[C@H](O)[C@@H](O)[C@@H](O[C@H]1[C@H](O)[C@H]2O)O[C@@H]7CO)O[C@@H]6CO)O[C@@H]5CO)O[C@@H]4CO)O[C@@H]3CO` [α-cyclodextrin, alpha-cyclodextrin] the “triolein excretion (radiolabel in cecal contents, colon contents and feces)” value [1] was “no or only a modest effect”, the “tripalmitin excretion (radiolabel in cecal contents, colon contents and feces)” value [1] was “dramatically increased; also recorded: dramatic effect” and the “triolein excretion (radiolabel in cecal contents, colon contents and feces)” value (5% in AIN-93G diet with 15% fat, fed 7 days, then 4 g radiolabeled meal, FIG. 1, listed as α-Cyclodextrin) was “no affect”. For the same molecule, the “ratio of excretion of tripalmitin to triolein” value (calculated from FIG. 1 values (radiolabel excreted as proportion of radiolabel consumed), FIG. 2) was “favored tripalmitin excretion” and the fat excretion (dietary, 5% in diet, rats) was “does indeed increase fat excretion”.
